Laboratory results published in patent publication US5888757A, “Cell wall assay” (Millennium Pharmaceuticals, Inc., priority 1996, dated 1999).

Key:
[1] = target: T1, CaCHS1p (chitin synthase of Candida albicans) (Candida albicans, UniProt P23316); assay: Chitin synthase inhibition assay (WGA capture / WGA-HRP detection of chitin synthesized in vitro); assay type: biochemical; settings: inhibitor added over a range of concentrations, to a maximal concentration of 1 mM; FIG. 3
Text: Preparation of CaCHS1p Membranes: In this example, chitin synthase was obtained from the S. cerevisiae strain 68-11-2C, transformed with the plasmid pJA16 (Bulawa et al., 1990, Proc. Natl. Acad. Sci. USA, 87:7424-7428 and Au-Young et al., 1990, Mol. Micro. 4:197-207). In strain 68-11-2C, the S. cerevisiae genes encoding chitin synthases 1 and 2 (CHS1 and CHS2, respectively) were genetically disrupted, rendering the strain deficient in production of these enzymes. The plasmid pJA16 encodes the chitin synthase gene of Candida albicans, and provides the only significant source of chitin in this assay.
Generally, the strain 68-1-2C/pJA16 is maintained on a supplemented SD medium. In this example, the cells were grown in 1 liter of SD medium for 48 hrs at 30° C. To provide good aeration, the culture was divided into two 500 ml cultures and grown in 2-liter flasks until the culture reached the stationary phase (i.e., until the OD600 of the culture reached 1.2-1.4). […] The cell walls then were broken by vortexing aliquots (2 ml) of the resuspended cells for 2 minutes with 3 ml of glass beads, according to conventional protocols. The cell extracts then were centrifuged for 5 minutes at 1,000×g, and the resulting supernatant was stored at -80° C. until it was used in the chitin synthase reactions described below. Frozen CaCHS1p membranes can be thawed at 30° C. […]

[2] = target: T1, CaCHS1p (chitin synthase of Candida albicans); settings: known relative potency, Nikkomycin Z versus Asperfuran; cited from earlier work

T1 sequence (P23316 whole entry): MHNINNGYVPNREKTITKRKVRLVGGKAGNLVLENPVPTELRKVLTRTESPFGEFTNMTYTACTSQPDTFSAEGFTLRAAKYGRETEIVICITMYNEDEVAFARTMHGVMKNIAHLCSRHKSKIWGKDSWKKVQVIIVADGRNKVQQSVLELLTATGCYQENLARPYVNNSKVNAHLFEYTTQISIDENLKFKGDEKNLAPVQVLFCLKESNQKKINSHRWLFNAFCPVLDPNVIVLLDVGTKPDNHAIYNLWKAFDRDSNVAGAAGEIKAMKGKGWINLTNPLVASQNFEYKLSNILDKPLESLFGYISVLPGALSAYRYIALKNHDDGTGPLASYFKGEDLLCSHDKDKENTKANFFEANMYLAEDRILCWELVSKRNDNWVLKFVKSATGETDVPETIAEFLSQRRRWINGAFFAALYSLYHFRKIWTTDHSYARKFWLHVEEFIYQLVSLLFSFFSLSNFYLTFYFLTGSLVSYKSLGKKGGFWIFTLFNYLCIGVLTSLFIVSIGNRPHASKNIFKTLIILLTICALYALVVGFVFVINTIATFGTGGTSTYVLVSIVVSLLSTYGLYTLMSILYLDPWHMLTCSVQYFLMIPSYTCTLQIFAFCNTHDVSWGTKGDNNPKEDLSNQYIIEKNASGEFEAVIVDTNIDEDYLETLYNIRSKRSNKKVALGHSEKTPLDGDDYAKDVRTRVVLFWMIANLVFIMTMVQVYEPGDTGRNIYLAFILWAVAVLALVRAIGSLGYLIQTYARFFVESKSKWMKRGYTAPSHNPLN

Compound	inhibition of chitin synthase [1]	relative potency as inhibitor of CaCHS1p activity [2]
C/C=C/C=C/[C@H]1Cc2cc(O)cc(O)c2O1 [Asperfuran]	an increase in the concentration of either of these chitin synthase inhibitors causes an increase in the inhibition of chitin synthase	
C[C@@H]([C@H](N)C(=O)N[C@H](C(=O)O)[C@H]1O[C@@H](n2ccc(=O)[nH]c2=O)[C@H](O)[C@@H]1O)[C@H](O)c1ccc(O)cn1 [Nikkomycin Z]	an increase in the concentration of either of these chitin synthase inhibitors causes an increase in the inhibition of chitin synthase	more potent inhibitor of CaCHS1p activity than is Asperfuran
